Legend:
HIV-1 IN [1] = molecular target: T1, HIV-1 IN (Human immunodeficiency virus type 1 group M subtype B, UniProt P04585); assay: HIV-1 IN in vitro concerted integration assay (processed or unprocessed donor DNA); conditions: for effect on integration from the processed DNA: processed donor DNA (strand transfer); for inhibition of integration from the unprocessed substrate: unprocessed donor DNA; for differential effect between reactions: strand transfer / processed donor versus 3′processing / unprocessed donor: comparison of concerted integration and 3′processing results
HIV-1 IN [2] = molecular target: T1, HIV-1 IN; assay: HIV-1 IN 3′processing assay; format: biochemical; conditions: 600 nM IN; increasing concentrations
MOS1 = molecular target: T2, MOS1 (Drosophila mauritiana, UniProt Q7JQ07); assay: MOS1 in vitro activities, overall statements of the discussion; format: biochemical, D. mauritiana; conditions: in vitro assays of MOS1 activities; discussion
T2 construct: involving the full-length Mos1 transposase (MOS1) was recently solved; made in house
T2 sequence (Q7JQ07 whole entry): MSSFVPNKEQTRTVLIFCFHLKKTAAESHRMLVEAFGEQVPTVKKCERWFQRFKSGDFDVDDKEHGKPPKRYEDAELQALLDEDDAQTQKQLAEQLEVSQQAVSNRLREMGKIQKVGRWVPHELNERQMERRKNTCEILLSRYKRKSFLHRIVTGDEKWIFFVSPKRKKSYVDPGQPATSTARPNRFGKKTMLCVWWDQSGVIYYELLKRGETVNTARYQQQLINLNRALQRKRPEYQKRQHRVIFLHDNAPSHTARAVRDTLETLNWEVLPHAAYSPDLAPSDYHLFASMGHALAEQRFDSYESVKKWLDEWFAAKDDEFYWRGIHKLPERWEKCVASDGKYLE
Experimental: (§1) In vitro transposition reactions were performed using pBC-3T3 as both the donor DNA and the target, as previously described. Briefly, the basic transposition reaction mixtures contained 10 mM Tris-HCl (pH 9), 50 mM NaCl, 20 mM MgCl2, 0.5 mM EDTA, 5% glycerol, 5 ng/ml BSA, 600 ng pBC-3T3, and 80 nM purified MBP-MOS1 (added last) in a volume of 20 µl. Inhibitors (25 or 10 µM, as specified) or DMSO (2%) were added to the reaction mixtures before the transposase. The reactions were allowed to proceed for 30 min at 30°C. After phenol-chloroform extraction and ethanol precipitation, 10% of the reaction mixture was transformed in electro-competent JM109 E. coli (2 mm cuvette, 1.5 kV in a MicroPulser™BioRad). Appropriate dilutions of each reaction mixture were plated on LB-tetracycline (12.5 µg/ml) agar and LB-chloramphenicol (80 µg/ml) agar to score the transposition rate. The transposition rate was the number of Tet^R colonies divided by the number of Chloram^R plus Tet^R colonies. Each condition was done at least three times in independent experiments.
Basic excision reaction mixtures contained 10 mM Tris-HCl (pH 9), 50 mM NaCl, 20 mM MgCl2, 0.5 mM EDTA, 0.5 mM DTT, 100 ng BSA, 600 ng of super-coiled pBC-3T3, and 80 nM MBP-MOS1 (added last) in a volume of 20 µl. Molecules (25 or 10 µM, as specified) or DMSO (2%) were added to the reaction mixtures before the transposase. The reactions were allowed to proceed at 30°C for 30 min before 2 µl of stop solution (loading buffer) were added. The reaction mixtures were then incubated at 65°C for 10 min. Each reaction was analysed by overnight electrophoresis at 2.7 V/cm on a TAE-buffered 1% agarose gel with ethidium bromide (0.3 mg/ml). After electrophoresis, the gel was photographed on a transilluminator. ImageGauge 4.22 software (Fujifilm) was used to quantify the bands. Each condition was tested at least twice.
These assays were performed using pre-cleaved 3′ITRs (PC-ITR), i.e. ITRs in the configuration expected after excision. Double-strand ITRs were obtained by annealing equimolar amounts of 70-NTS-PN (5′[…]3′) and 70-TS-PC (5′[…]3′) single-strand oligonucleotides. Prior to annealing, the transferred strand (70-TS-PC) was 5′-end labelled using T4 polynucleotide kinase (Promega) and γ-^32P-ATP following the manufacturer's instructions. Oligonucleotides were provided by Eurofins MWG Biotech (Germany) or Eurogentec (Belgium). Reaction mixtures containing 10 mM Tris-HCl (pH 9), 50 mM NaCl, 1 mM DTT, 5% glycerol, 100 ng BSA, 100 nM of labelled PC-ITR and 100 nM MBP-MOS1 in a final volume of 20 µl were incubated at 30°C for 30 min. The pBC plasmid (which contained the cat gene, a hot-spot for Mos1 insertion) was then added to 30 ng/µL along with 5 mM MgCl2. Molecules (25 or 10 µM, as specified) or DMSO (2%) were added to the reaction mixtures along with the target DNA to estimate their effect on integration. Reactions were carried out for 3 hours at 30°C. 0.1 mg/ml proteinase K and 0.1% SDS were added to stop the reaction. DNA products were purified by phenol-chloroform extraction and ethanol precipitated using standard techniques. DNA products were resuspended in DNA loading buffer, then separated onto a 1% agarose gel in 1X TAE (Tris Acetate EDTA) buffer. The gel was dried onto a nitrocellulose membrane (Hybond N+, GE Healthcare), scanned using a Storm, and analysed with ImageQuant software. Signals were quantified using ImageQuant software. Efficiency of integration was calculated as the intensity of the integration signal divided by the intensity of free target signal plus integration signal. Each condition was tested at least twice.
All molecules were also tested in in vitro assays reproducing integration and excision reactions catalysed by MOS1. […] In contrast, E-resveratrol and E-ε-viniferin glucoside, which act more specifically on HIV-1 3′processing reaction, and E-piceid and E-pterostilbene, which is more efficient on the integration reaction, were not active on MOS1.

Mos1 transposase (MOS1) = molecular target: T3, Mos1 transposase (MOS1) (Drosophila mauritiana, UniProt Q7JQ07); assay: MOS1 in vitro transposition assay (genetic hop experiment); format: biochemical, D. mauritiana; conditions: for inhibition at 25 µM: DMSO control as reference, read-out: inhibition of the whole MOS1 transposition activity
T3 construct: involving the full-length Mos1 transposase (MOS1) was recently solved; made in house
T3 sequence (Q7JQ07 whole entry): as above
Experimental: The wild type Mos1 transposase (MOS1: 345 amino acids) was produced and purified as a fusion protein linked to the maltose-binding protein by using the pMal-c2 system (New England Biolabs) and following the manufacturer's instructions.
as §1
To identify the natural stilbenes active on MOS1, the 17 molecules were tested using an in vitro genetic “hop” experiment, which is the most sensitive test available as yet. Purified MOS1 was incubated with the pBC-3T3 plasmid, which was used both as the transposon donor and the target plasmid. This plasmid contains the pBR322 tetracycline resistance gene (without promoter) framed by two Mos1 ITRs. This reconstitutes a pseudo-Mos1 element named 3T3. We took advantage of the fact that the cat gene (present in the pBC backbone) is a hotspot for Mos1 integration. […] Transposition events were recovered by bacterial transformation with selection for tetracycline resistance, as a gain-of-function landmark for transposition. […] Controls correspond to assays performed without molecule but with DMSO, which is routinely used as the solvent. […] To confirm the efficiency of the six molecules, they were similarly assayed at 10 µM ( figure 6B ). Since they appeared to be still active at 10 µM, they were further characterized in order to identify the targeted step of the transposition cycle.

293T cells = conditions: 72 hours treatment, 1–50 µM, MTS
[3] = read-out: inhibition of concerted integration

SMILES	inhibition of concerted integration from processed and unprocessed donor (HIV-1 IN [1]; increasing concentrations)	inhibitory effect on 3′processing (HIV-1 IN [2])	activity on MOS1 (MOS1)	inhibition at 10 µM (HIV-1 IN [1]; [3])	differential effect between reactions: strand transfer / processed donor versus 3′processing / unprocessed donor (HIV-1 IN [1])	further results
Oc1ccc(/C=C/c2cc(O)cc3c2[C@H](c2cc(O)cc(O)c2)[C@@H](c2ccc(O)c(O)c2)O3)cc1 [E-scirpusin A]	inhibited both activities	low	–	–	–	–
Oc1ccc([C@H]2c3c(O)cc(O)cc3[C@H]3c4c(cc(O)cc4C2C2c4cc(O)cc5c4[C@H](c4cc(O)cc(O)c4[C@@H]2c2ccc(O)cc2)[C@@H](c2ccc(O)cc2)O5)O[C@@H]3c2ccc(O)cc2)cc1 (stereo partly drawn) [isohopeaphenol]	–	–	not active	< 5%	–	–
Oc1ccc([C@@H]2c3c(O)cc(O)cc3[C@H]3c4c(cc(O)cc4[C@H]2O)O[C@@H]3c2ccc(O)cc2)cc1 [ampelopsin A]	–	–	–	< 5%	–	–
Oc1ccc([C@H]2Oc3cc(O)cc(/C=C/c4ccc5c(c4)[C@@H](c4cc(O)cc6c4[C@H](c4cc(O)cc(O)c4)[C@@H](c4ccc(O)cc4)O6)[C@H](c4ccc(O)cc4)O5)c3[C@@H]2c2cc(O)cc(O)c2)cc1 [vitisin B, E-vitisin B]	–	–	–	< 5%	–	activity against MOS1 in transposition assay (Mos1 transposase (MOS1); 10 µM): still active; activity against MOS1 in transposition assay (Mos1 transposase (MOS1); 25 µM): active against MOS1
Oc1cc(O)cc(/C=C/c2ccc(O)c(O)c2)c1 [E-piceatannol]	–	showed an inhibitory effect	–	–	–	cytotoxicity, cell survival (293T cells): showed some toxicity; effect on integration from the processed DNA (HIV-1 IN [1]; increasing concentrations): without having any detectable effect; inhibition of integration from the unprocessed substrate (HIV-1 IN [1]; increasing concentrations): inhibit integration from the unprocessed substrate
Oc1cc(O)cc(-c2cc3ccc(O)cc3o2)c1 [moracin M]	–	–	–	< 5%	–	–
Cc1nnc(C(=O)NC(C)(C)c2nc(C(=O)NCc3ccc(F)cc3)c(O)c(=O)n2C)o1 [raltegravir, reference compound]	always found better inhibitor than the selected compounds	inhibition property than the selected compounds	–	–	–	–
Oc1ccc(/C=C/c2cc(O)cc(O)c2)cc1 [E-resveratrol]	–	showed an inhibitory effect	not active	–	reaction than on integration	effect on integration from the processed DNA (HIV-1 IN [1]; increasing concentrations): without having any detectable effect; inhibition of integration from the unprocessed substrate (HIV-1 IN [1]; increasing concentrations): inhibit integration from the unprocessed substrate
Oc1ccc(/C=C/c2cc(O)cc3c2[C@@H](c2cc(O)cc4c2[C@H](c2cc(O)cc(O)c2)[C@@H](c2ccc(O)cc2)O4)[C@H](c2ccc(O)cc2)O3)cc1 [E-miyabenol C]	–	–	–	< 5%	–	–
Oc1ccc(C(O)C2c3cc(O)cc(O)c3[C@H](c3ccc(O)cc3)[C@H]2c2cc(O)cc(O)c2)cc1 (stereo partly drawn) [leachianol G]	inhibited both activities	low	also active against MOS1 activities	–	more active on strand transfer reaction than	activity against MOS1 in transposition assay (Mos1 transposase (MOS1); 10 µM): still active; inhibition at 25 µM (Mos1 transposase (MOS1); 25 µM): > 50%; inhibitory efficiency compared with raltegravir (HIV-1 IN [1]; concerted integration, increasing concentrations): inhibitory efficiencies close to raltegravir; inhibition at 50 µM (HIV-1 IN [1]; [3]): 30 to 60%
Oc1ccc(/C=C/c2cc(O)cc3c2[C@H](c2cc(O)cc(O)c2)[C@@H](c2ccc(O)cc2)O3)cc1 [(+)-E-ε-viniferin]	–	–	–	< 5%	–	–
OCC1OC(Oc2cc(O)cc(C=Cc3ccc(O)cc3)c2)C(O)C(O)C1O (stereo not drawn) [E-piceid]	inhibited both activities	–	not active	–	more active on strand transfer reaction than	–
Oc1ccc(/C=C2/c3cc(O)cc(O)c3[C@H](c3ccc(O)cc3)[C@H]2c2cc(O)cc(O)c2)cc1 [quadrangularin A]	inhibited both activities	showed an inhibitory effect	also active against MOS1 activities	–	better inhibitor of integration from unprocessed than from processed DNA	activity against MOS1 in transposition assay (Mos1 transposase (MOS1); 10 µM): still active; inhibition at 25 µM (Mos1 transposase (MOS1); 25 µM): > 50%
OCC1OC(Oc2cc(C=Cc3ccc(O)cc3)c3c(c2)OC(c2ccc(O)cc2)C3c2cc(O)cc(O)c2)C(O)C(O)C1O (stereo not drawn) [E-ε-viniferin glucoside]	–	showed an inhibitory effect	not active	–	reaction than on integration	cytotoxicity, cell survival (293T cells): showed some toxicity; effect on integration from the processed DNA (HIV-1 IN [1]; increasing concentrations): without having any detectable effect; inhibition of integration from the unprocessed substrate (HIV-1 IN [1]; increasing concentrations): inhibit integration from the unprocessed substrate
